From ChEMBL document CHEMBL1149970, “Novel dithiocarbamate carbapenems1 with anti-MRSA activity” (Bioorg Med Chem Lett, 1997) come the findings set out here.

≈ marks a conversion by molar mass, not a printed value.

Common to all, as to format: functional
In one assay the test system is Escherichia coli. Nature of the assay: In vitro antibacterial activity against Escherichia coli NIHJ JC2 organism.
For another assay, the system named is Pseudomonas aeruginosa. The assay is described as follows: In vitro antibacterial activity against Pseudomonas aeruginosa MB5002 organism.
The test system of assay [1] is Staphylococcus aureus. The assay is described as follows: Compound was tested in vivo for its anti-methicillin-resistant staphylococcus aureus(MRSA). The following applies: Staphylococcus aureus.
In assay [2] the test system is Staphylococcus aureus. The assay is described as follows: In vitro antibacterial activity against staphylococcus aureus 209P NIHJ JC1 organism.
In assay [3] the target is T1, Dipeptidase 1 (Sus scrofa) (UniProt P22412).
T1 sequence (whole entry): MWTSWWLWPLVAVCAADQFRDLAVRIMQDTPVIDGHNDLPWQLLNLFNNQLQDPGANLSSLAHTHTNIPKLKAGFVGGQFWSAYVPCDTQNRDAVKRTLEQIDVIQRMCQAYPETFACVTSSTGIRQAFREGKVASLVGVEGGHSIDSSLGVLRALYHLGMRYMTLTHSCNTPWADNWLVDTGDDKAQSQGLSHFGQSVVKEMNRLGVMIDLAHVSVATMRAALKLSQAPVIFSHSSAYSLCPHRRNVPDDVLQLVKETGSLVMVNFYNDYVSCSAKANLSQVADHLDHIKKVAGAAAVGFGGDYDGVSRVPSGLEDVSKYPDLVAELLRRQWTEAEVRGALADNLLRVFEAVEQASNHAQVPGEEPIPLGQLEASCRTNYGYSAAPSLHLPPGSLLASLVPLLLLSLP
Nature of the assay: Relative rate of hydrolysis of porcine renal dehydropeptidase-I (DHP-I) to imipenem.

In assay [4] the test system is Staphylococcus epidermidis. The assay is described as follows: In vitro antibacterial activity against Staphylococcus epidermidis MB5181a organism.
Assay [5] has as its system Staphylococcus aureus. Nature of the assay: In vitro antibacterial activity against staphylococcus aureus BB6294 organism (Methicillin-resistant strain).
Assay [6] concerns Staphylococcus aureus. The assay is described as follows: In vitro antibacterial activity against staphylococcus aureus CSa1009 (Methicillin-resistant strain and b beta-Lactamase producing strain).
For a further assay, the system named is Enterococcus faecalis. The assay is described as follows: In vitro antibacterial activity against Enterococcus faecalis MB4996 organism.
Setting [7] is: Staphylococcus epidermidis, read-out: MIC.

One may read the ED50 as the dose that gives a 50% effect, or the effect in half of the subjects. Turning to `CN[C@H](CC(C)C)C(=O)N[C@H]1C(=O)N[C@@H](CC(N)=O)C(=O)N[C@H]2C(=O)N[C@H]3C(=O)N[C@H](C(=O)N[C@H](C(=O)O)c4cc(O)cc(O)c4-c4cc3ccc4O)[C@H](O)c3ccc(c(Cl)c3)Oc3cc2cc(c3O[C@@H]2O[C@H](CO)[C@@H](O)[C@H](O)[C@H]2O[C@H]2C[C@](C)(N)[C@H](O)[C@H](C)O2)Oc2ccc(cc2Cl)[C@H]1O` [VANCOMYCIN], the MIC in the assay on Escherichia coli is greater than 25 µg/mL; with Pseudomonas aeruginosa, greater than 25 µg/mL; against Staphylococcus aureus [2] it was 0.39 µg/mL (≈ 0.269 µM). This compound also showed an ED50 in the assay with Staphylococcus aureus [1] of 5.56 mg/kg.

`C[C@@H](O)[C@H]1C(=O)N2C(C(=O)O)=C(SC(=O)N3CCCC3)[C@H](C)[C@H]12` returned a DHP-I susceptibility in assay [3] of 0.65. The MIC in [4] (setting [7]) stood at 25 µg/mL (≈ 73.4 µM); in the assay on Staphylococcus aureus [2], 0.05 µg/mL (≈ 0.147 µM); with Staphylococcus aureus [5], 25 µg/mL (≈ 73.4 µM); against Staphylococcus aureus [6], 25 µg/mL (≈ 73.4 µM).

With `C[C@@H](O)[C@H]1C(=O)N2C(C(=O)O)=C(SC(=S)N3CC(O)C3)[C@H](C)[C@H]12`, the DHP-I susceptibility in assay [3] is 2.32. In addition, the MIC in the assay with Enterococcus faecalis is 12.5 µg/mL (≈ 34.9 µM); in the assay with Escherichia coli, 0.78 µg/mL (≈ 2.18 µM); against Pseudomonas aeruginosa it was greater than 25 µg/mL; in [4] (setting [7]), 3.13 µg/mL (≈ 8.73 µM); against Staphylococcus aureus [2], 0.025 µg/mL (≈ 0.0697 µM); against Staphylococcus aureus [5], 6.25 µg/mL (≈ 17.4 µM). Besides, in the assay on Staphylococcus aureus [6], the MIC is 6.25 µg/mL (≈ 17.4 µM).

With `C[C@@H](O)[C@H]1C(=O)N2C(C(=O)O)=C(SC(=S)N(C)Cc3ccccc3)[C@H](C)[C@H]12`, the DHP-I susceptibility in [3] worked out at 1.94. The MIC against Enterococcus faecalis was 1.56 µg/mL (≈ 3.84 µM); against Escherichia coli, 12.5 µg/mL (≈ 30.7 µM); with Pseudomonas aeruginosa, greater than 25 µg/mL; in assay [4] (setting [7]) it was 3.13 µg/mL (≈ 7.7 µM); in the assay with Staphylococcus aureus [2], 0.012 µg/mL (≈ 0.0295 µM); with Staphylococcus aureus [5], 1.56 µg/mL (≈ 3.84 µM). Also, in the assay with Staphylococcus aureus [6], the MIC was determined as 1.56 µg/mL (≈ 3.84 µM).

Compound `C[C@@H](O)[C@H]1C(=O)N2C(C(=O)O)=C(SC(=S)N3CCCCC3)[C@H](C)[C@H]12` showed a DHP-I susceptibility in assay [3] of 3.1. The MIC was 6.25 µg/mL (≈ 16.9 µM) in the assay with Enterococcus faecalis; 25 µg/mL (≈ 67.5 µM) in the assay with Escherichia coli; greater than 25 µg/mL in the assay on Pseudomonas aeruginosa; 3.13 µg/mL (≈ 8.45 µM) in [4] (setting [7]); 0.025 µg/mL (≈ 0.0675 µM) in the assay with Staphylococcus aureus [2]; 1.56 µg/mL (≈ 4.21 µM) against Staphylococcus aureus [5]. Also, the MIC with Staphylococcus aureus [6] is 3.13 µg/mL (≈ 8.45 µM).

For the compound `C[C@@H](O)[C@H]1C(=O)N2C(C(=O)O)=C(SC(=S)N3CCC(O)C3)[C@H](C)[C@H]12` (stereo partly drawn), in assay [3], the DHP-I susceptibility was 2.21. The MIC against Enterococcus faecalis is 6.25 µg/mL (≈ 16.8 µM); in the assay on Escherichia coli, 0.78 µg/mL (≈ 2.09 µM); against Pseudomonas aeruginosa it was greater than 25 µg/mL; in [4] (setting [7]), 3.13 µg/mL (≈ 8.4 µM); in the assay with Staphylococcus aureus [2] it was 0.025 µg/mL (≈ 0.0671 µM); with Staphylococcus aureus [5], 6.25 µg/mL (≈ 16.8 µM). The compound further had an MIC in the assay with Staphylococcus aureus [6] of 6.25 µg/mL (≈ 16.8 µM).

On to `C[C@@H](O)[C@H]1C(=O)N2C(C(=O)O)=C(SC(=S)N(C)c3cccs3)[C@H](C)[C@H]12`, for which the DHP-I susceptibility in assay [3] was found to be 2.05. Moreover, the MIC was 3.13 µg/mL (≈ 7.85 µM) in the assay on Enterococcus faecalis; 12.5 µg/mL (≈ 31.4 µM) against Escherichia coli; greater than 25 µg/mL against Pseudomonas aeruginosa; 0.78 µg/mL (≈ 1.96 µM) in assay [4] (setting [7]); less than 0.006 µg/mL in the assay on Staphylococcus aureus [2]; 1.56 µg/mL (≈ 3.91 µM) against Staphylococcus aureus [5]. In the assay on Staphylococcus aureus [6], the MIC was found to be 3.13 µg/mL (≈ 7.85 µM).

Compound `C[C@@H](O)[C@H]1C(=O)N2C(C(=O)O)=C(SC(=S)N3CCN(C)CC3)[C@H](C)[C@H]12` showed a DHP-I susceptibility in [3] of 1.53. The MIC in the assay on Enterococcus faecalis is 6.25 µg/mL (≈ 16.2 µM); in the assay on Escherichia coli, 1.56 µg/mL (≈ 4.05 µM); in the assay with Pseudomonas aeruginosa, greater than 25 µg/mL; in [4] (setting [7]) it was 3.13 µg/mL (≈ 8.12 µM); in the assay on Staphylococcus aureus [2], 0.025 µg/mL (≈ 0.0648 µM); against Staphylococcus aureus [5], 3.13 µg/mL (≈ 8.12 µM). Also, the MIC with Staphylococcus aureus [6] is 6.25 µg/mL (≈ 16.2 µM).

For the compound `C=CCN(CCCO)C(=S)SC1=C(C(=O)O)N2C(=O)[C@H]([C@@H](C)O)[C@H]2[C@H]1C`, in [3], the DHP-I susceptibility turned out to be 1.39. The MIC against Enterococcus faecalis is 6.25 µg/mL (≈ 15.6 µM); in the assay on Escherichia coli, 12.5 µg/mL (≈ 31.2 µM); in the assay on Pseudomonas aeruginosa, greater than 25 µg/mL; in assay [4] it was 3.13 pug ml-1; in the assay with Staphylococcus aureus [2] it was 0.025 µg/mL (≈ 0.0624 µM); in the assay on Staphylococcus aureus [5], 3.13 µg/mL (≈ 7.81 µM). In the assay on Staphylococcus aureus [6], the MIC turned out to be 3.13 µg/mL (≈ 7.81 µM).

As to `C[C@@H](O)[C@H]1C(=O)N2C(C(=O)[O-])=C(SC(=S)N3CC[N+](C)(C)CC3)[C@H](C)[C@H]12`, in assay [3], the DHP-I susceptibility was determined as 0.11. Besides, the MIC is 1.56 µg/mL (≈ 3.9 µM) against Enterococcus faecalis; 0.1 µg/mL (≈ 0.25 µM) against Escherichia coli; greater than 25 µg/mL with Pseudomonas aeruginosa; 3.13 µg/mL (≈ 7.83 µM) in assay [4] (setting [7]); 0.012 µg/mL (≈ 0.03 µM) in the assay with Staphylococcus aureus [2]; 3.13 µg/mL (≈ 7.83 µM) against Staphylococcus aureus [5]. This compound also yielded an MIC in the assay with Staphylococcus aureus [6] of 12.5 µg/mL (≈ 31.3 µM).
